Results published in publication PMC3977315 (2010).

Tests used:
[1] = system: poly(dA)•2poly(dT) (DNA, polymer) A/T; experiment: UV melting; settings: K+ 150 mM, 10 mM sodium cacodylate, pH 6.8, rdb 1.67
[2] = system: poly(dA)•poly(dT) (DNA, polymer) A/T; experiment: fluorescent intercalator displacement; settings: K+ 150 mM; Na+ 10 mM; thiazole orange not displaced; highest concentration 10 mM
[3] = system: poly(dA)•2poly(dT) (DNA, polymer) A/T; experiment: calorimetric/spectroscopic thermodynamic profile; settings: K+ 150 mM; 10 mM sodium cacodylate, 0.5 mM EDTA, pH 5.5, 20 °C
[4] = system: poly(dA)•2poly(dT) (DNA, polymer) A/T; experiment: fluorescent intercalator displacement; settings: thiazole orange displaced

## NC[C@@H]1O[C@H](O[C@H]2[C@@H](O)[C@H](O[C@@H]3[C@@H](O)[C@H](N)C[C@H](N)[C@H]3O[C@H]3O[C@H](CN)[C@@H](O)[C@H](O)[C@H]3N)O[C@@H]2CO)[C@H](N)[C@@H](O)[C@@H]1O
[1]; 25 μM neomycin, per base
  ΔTm3→2: ~ 25 °C
[2]
  AC50: > 10 mM
[3]
  KT(20°C): (2.4±0.1)×10^5 M^−1

## NC[C@H]1O[C@H](O[C@H]2[C@H](O)[C@@H](O)[C@H](N)C[C@@H]2N)[C@H](N)[C@@H](O)[C@@H]1O
[1]
  binding: weak

## NC[C@H]1O[C@H](O[C@H]2[C@H](O[C@@H]3O[C@H](CO)[C@@H](O)[C@H]3O)[C@@H](O)[C@H](N)C[C@@H]2N)[C@H](N)[C@@H](O)[C@@H]1O
[4]
  binding: weak
